Earlier results on two molecules are cited in patent US8790626B2, “Method for treating hair growth disorders, such as female pattern alopecia, and compositions useful therefore” (The University of Kentucky, priority 2005, dated 2014).

The conditions of data set [1]: Jacobson, et al., 2005.
For data set [2] the following is noted: U.S. Pat. No. 6,924,299.

As to `CCCCCCCCCCCCCCOC(=O)c1cccnc1` [Myristyl nicotinate, myristyl nicotinate], in data set [1], the “Epidermal differentiation and skin barrier integrity” value was “promote epidermal differentiation leading to strong enhancement of skin barrier integrity”. In the case of `CCCCCCCCOC(=O)c1cccnc1` [octyl nicotinate], the “Blood flow and oxygen delivery to tissue” value in data set [2] was “stimulates blood flow and oxygen delivery to tissue”.
